Data from US11685719B2, “Pyridinone MK2 inhibitors and uses thereof” (Xinthera, Inc., priority 2021, dated 2023).
Where two headings read alike, the source gives them in different places.

What was measured:
[1] = target: p38a/MK2 (Homo sapiens (Human), UniProt P49137+Q16539); experiment: biochemical; conditions: 10-point 1:3 dilution, 10 μM ATP, 2 h incubation
Protocol: (§1) Expression vectors of the recombinant MK2 and PRAK kinases were constructed by cloning of the codon optimized gene sequences of MK2 (Uniprot ID P49137, amino acid fragment F46-H400), or PRAK (Uniprot ID Q81W41, amino acid fragment M1-Q471) into pGEX-4T1 (GE) for over expression of these kinases with N-terminal GST-tag. Protein expression was carried out in E. coli BL21 by growing the hosts in TB medium, induction of protein expression with 0.5 mM IPTG at approximate 0.8 OD600, and incubation of the cultures at 18° C. for 14-20 hours afterwards. The harvested cells were resuspended in […] of Lysis buffer (50 mM Tris-HCl, pH 8.0, 500 mM NaCl, 1 mM DTT, 5% glycerol, and 1 mM PMSF) per gram of wet cell mass and homogenized at 4° C. in a microfluidizer (ATS, Suzhou, China) at 14,000 psi pressure, 3 passes. The cell lysates were clarified by centrifugation and the supernatants containing the GST-fusion proteins were purified by affinity chromatography using GSH-Sepharose (GE) gravity flow columns pre-equilibrated in Buffer A (50 mM Tris-HCl, pH 8.0, 500 mM NaCl, 1 mM DTT, and 5% glycerol). After thorough washing of the columns with Buffer A, the bound GST-proteins were eluted by Buffer B (50 mM Tris, pH 8.0, 500 mM NaCl, 1 mM DTT, 5% glycerol, 10 mM glutathione), followed by size-exclusion purification on Superdex 200 column equilibrated in Buffer A. The purified proteins were concentrated to approximately 1 mg/ml and stored at −80° C.
(§2) This study evaluates the inhibitory potency of invention compound on p38/MK2 pathway vs p38/PRAK pathway. More specially the compound concentration (IC50) was determined that inhibited half of the maximal activation of MK2 or PRAK by p38. MK2 activation study was set up without or with a serial of 10-point 1:3 dilution of invention compound at top dose of 1 or 10 μM, and PRAK activation study was set up without or with a serial of 10-point 1:3 dilution of invention compound at top dose of 300 μM. The MIK2 and PRAK activity were determined by the phosphorylation level of HSP27 peptide conjugated with FITC.

[2] = target: p38a/PRAK (Homo sapiens (Human), UniProt Q16539); experiment: biochemical; conditions: 10-point 1:3 dilution, top dose 300 μM; 10 μM ATP, 2 h incubation; read-out: p38a/PRAK Enzyme pIC50 (converted)
Protocol: as §1, §2

[3] = top dose 1 μM, read-out: p38a/MK2 (1 μM) Enzyme pIC50 (converted)

Sequence of p38a/PRAK (Q16539 whole entry): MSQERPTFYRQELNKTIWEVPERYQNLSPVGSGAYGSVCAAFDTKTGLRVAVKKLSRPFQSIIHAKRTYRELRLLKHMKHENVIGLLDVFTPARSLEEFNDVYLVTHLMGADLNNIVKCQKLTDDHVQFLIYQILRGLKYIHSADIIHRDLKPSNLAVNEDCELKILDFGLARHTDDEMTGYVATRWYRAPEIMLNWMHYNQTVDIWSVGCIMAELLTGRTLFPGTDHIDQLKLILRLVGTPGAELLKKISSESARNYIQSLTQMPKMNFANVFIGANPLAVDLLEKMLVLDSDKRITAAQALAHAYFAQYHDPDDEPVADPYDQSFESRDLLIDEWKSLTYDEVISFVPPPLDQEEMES
Sequence of p38a/MK2 (Q16539 whole entry, the tested form may be a part): as the sequence (Q16539 whole entry) above
Sequence of p38a/MK2 (P49137 46-400): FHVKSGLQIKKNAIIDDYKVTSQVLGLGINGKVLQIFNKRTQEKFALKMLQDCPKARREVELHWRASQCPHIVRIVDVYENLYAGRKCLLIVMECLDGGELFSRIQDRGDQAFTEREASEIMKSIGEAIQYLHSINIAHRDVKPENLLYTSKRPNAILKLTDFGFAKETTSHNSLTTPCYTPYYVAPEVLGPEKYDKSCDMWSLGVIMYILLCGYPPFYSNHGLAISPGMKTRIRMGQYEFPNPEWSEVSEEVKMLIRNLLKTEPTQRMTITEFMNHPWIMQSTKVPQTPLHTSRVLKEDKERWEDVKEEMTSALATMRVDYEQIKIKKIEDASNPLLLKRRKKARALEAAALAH

| Compound | IC50 [1, 3] [µM] | IC50 [2] [µM] | IC50 ([1]; top dose 10 μM, read-out: p38a/MK2 (10 μM) Enzyme pIC50 (converted)) [µM] |
| --- | --- | --- | --- |
| Cc1cnc(-n2cccc(C(C)C)c2=O)cc1-n1c(C)cc(OCc2ncc(F)cc2F)c(Cl)c1=O (single isomer, unassigned) [Example 17A, rel-3-chloro-4-[(3,5-difluoropyridin-2-yl)methoxy]-2′-(3-isopropyl-2-oxopyridin-1-yl)-5′,6-dimethyl-[1,4′-bipyridin]-2-one] | 0.00158 | 6.31 |  |
| [2H]C([2H])(Oc1cc(C)n(-c2cc(-n3cccc(C(C)(C)O)c3=O)ncc2C)c(=O)c1Cl)c1ncc(Cl)cc1F (single isomer, unassigned) [Example 21B, rel-3-chloro-4-[(5-chloro-3-fluoropyridin-2-yl)(2H2)methoxy]-2′-[3-(2-hydroxypropan-2-yl)-2-oxopyridin-1-yl]-5′,6-dimethyl-[1,4′-bipyridin]-2-one] | > 1 | > 316 |  |
| Cc1cnc(-n2ccnc(C(C)(C)O)c2=O)cc1-n1c(C)cc(OCc2ncc(F)cc2F)c(Cl)c1=O (single isomer, unassigned) [Example 5B, rel-3-chloro-4-[(3,5-difluoropyridin-2-yl)methoxy]-2′-[3-(2-hydroxypropan-2-yl)-2-oxopyrazin-1-yl]-5′,6-dimethyl-[1,4′-bipyridin]-2-one] | > 1 | > 316 |  |
| Cc1ncc(-n2cccc(C(C)(C)O)c2=O)cc1-n1c(C)cc(OCc2ncc(F)cc2F)c(Cl)c1=O (single isomer, unassigned) [Example 16B, rel-5′-{3-chloro-4-[(3,5-difluoropyridin-2-yl)methoxy]-6-methyl-2-oxopyridin-1-yl}-3-(2-hydroxypropan-2-yl)-6′-methyl-[1,3′-bipyridin]-2-one] | > 1 | > 316 |  |
| [2H]C([2H])(Oc1cc(C)n(-c2cc(-n3ccnc(C(C)(C)O)c3=O)ncc2C)c(=O)c1Cl)c1ncc(F)cc1F (single isomer, unassigned) [Example 19A, rel-3-chloro-4-((3,5-difluoropyridin-2-yl)methoxy-d2)-2′-(3-(2-hydroxypropan-2-yl)-2-oxopyrazin-1(2H)-yl)-5′,6-dimethyl-2H-[1,4′-bipyridin]-2-one] | 0.001 | 1.58 |  |
| Cc1cnc(-n2cccc([C@@](C)(O)C3CC3)c2=O)cc1-n1c(C)cc(OCc2ncc(F)cc2F)c(Cl)c1=O (single isomer, unassigned) [Example 14B, rel-3-chloro-2′-[3-(1-cyclopropyl-1-hydroxyethyl)-2-oxopyridin-1-yl]-4-[(3,5-difluoropyridin-2-yl)methoxy]-5′,6-dimethyl-[1,4′-bipyridin]-2-one] | 0.00126 | 3.16 |  |
| Cc1cnc(-n2ccnc(C(C)(C)O)c2=O)cc1-n1c(C)cc(OCc2ncc(F)cc2Cl)c(Cl)c1=O (single isomer, unassigned) [Example 24A, rel-3-chloro-4-[(3-chloro-5-fluoropyridin-2-yl)methoxy]-2′-[3-(2-hydroxypropan-2-yl)-2-oxopyrazin-1-yl]-5′,6-dimethyl-[1,4′-bipyridin]-2-one] | > 1 | > 316 |  |
| Cc1cnc(-n2cccc(C(C)(C)O)c2=O)cc1-n1c(C)cc(OCc2ncc(F)cc2F)c(Cl)c1=O (single isomer, unassigned) [Example 1B, rel-3-chloro-4-[(3,5-difluoropyridin-2-yl)methoxy]-2′-[3-(2-hydroxypropan-2-yl)-2-oxopyridin-1-yl]-5′,6-dimethyl-[1,4′-bipyridin]-2-one] |  | > 316 | 0.398 |
| Cc1cnc(-n2cccc(C3CCOCC3)c2=O)cc1-n1c(C)cc(OCc2ncc(F)cc2F)c(Cl)c1=O (single isomer, unassigned) [Example 8B, rel-3-chloro-4-[(3,5-difluoropyridin-2-yl)methoxy]-5′,6-dimethyl-2′-[3-(oxan-4-yl)-2-oxopyridin-1-yl]-[1,4′-bipyridin]-2-one] | > 1 | > 316 |  |
| Cc1cnc(-n2cccc(C3CCOCC3)c2=O)cc1-n1c(C)cc(OCc2ncc(F)cc2F)c(Cl)c1=O (single isomer, unassigned) [Example 8A, rel-3-chloro-4-[(3,5-difluoropyridin-2-yl)methoxy]-5′,6-dimethyl-2′-[3-(oxan-4-yl)-2-oxopyridin-1-yl]-[1,4′-bipyridin]-2-one] | 0.000794 | 2.51 |  |
| [2H]C([2H])(Oc1cc(C)n(-c2cc(-n3ccnc(C(C)(C)O)c3=O)ncc2C)c(=O)c1Cl)c1ncc(C)cc1F (single isomer, unassigned) [Example 28B, rel-3-chloro-4-[(3-fluoro-5-methylpyridin-2-yl)(2H2)methoxy]-2′-[3-(2-hydroxypropan-2-yl)-2-oxopyrazin-1-yl]-5′,6-dimethyl-[1,4′-bipyridin]-2-one] | > 0.1 | > 316 |  |
| Cc1cnc(-n2cc(C(C)(C)O)ccc2=O)cc1-n1c(C)cc(OCc2ncc(F)cc2F)c(Cl)c1=O (single isomer, unassigned) [Example 13B, rel-3-chloro-4-[(3,5-difluoropyridin-2-yl)methoxy]-2′-[5-(2-hydroxypropan-2-yl)-2-oxopyridin-1-yl]-5′,6-dimethyl-[1,4′-bipyridin]-2-one] |  | 15.8 |  |
| Cc1cnc(-n2cccc(C(C)C)c2=O)cc1-n1c(C)cc(OCc2ncc(F)cc2F)c(Cl)c1=O (single isomer, unassigned) [Example 17B, rel-3-chloro-4-[(3,5-difluoropyridin-2-yl)methoxy]-2′-(3-isopropyl-2-oxopyridin-1-yl)-5′,6-dimethyl-[1,4′-bipyridin]-2-one] | > 1 | > 316 |  |
| [2H]C([2H])(Oc1cc(C)n(-c2cc(-n3ccnc(C(C)(C)O)c3=O)ncc2C)c(=O)c1Cl)c1ncc(F)cc1Cl (single isomer, unassigned) [Example 22A, rel-3-chloro-4-((3-chloro-5-fluoropyridin-2-yl)methoxy-d2)-2′-(3-(2-hydroxypropan-2-yl)-2-oxopyrazin-1(2H)-yl)-5′,6-dimethyl-2H-[1,4′-bipyridin]-2-one] | 0.002 | 3.98 |  |
| [2H]C([2H])(Oc1cc(C)n(-c2cc(-n3cccc(C(C)(C)O)c3=O)ncc2C)c(=O)c1Cl)c1ncc(F)cc1F (single isomer, unassigned) [Example 18B, rel-3″-chloro-4″-((3,5-difluoropyridin-2-yl)methoxy-d2)-3-(2-hydroxypropan-2-yl)-5′,6″-dimethyl-2H,2″H-[1,2′:4′,1″-terpyridine]-2,2″-dione] | > 0.1 | > 316 |  |
| Cc1cnc(-n2ccc(C)c(C(C)(C)O)c2=O)cc1-n1c(C)cc(OCc2ncc(F)cc2F)c(Cl)c1=O (single isomer, unassigned) [Example 15A, rel-3-chloro-4-[(3,5-difluoropyridin-2-yl)methoxy]-2′-[3-(2-hydroxypropan-2-yl)-4-methyl-2-oxopyridin-1-yl]-5′,6-dimethyl-[1,4′-bipyridin]-2-one] | 0.01 | 2.51 |  |
| COCc1cc(OCc2ncc(F)cc2F)c(Cl)c(=O)n1-c1cc(-n2cccc(C(C)(C)O)c2=O)ncc1C (single isomer, unassigned) [Example 3B, rel-3-chloro-4-[(3,5-difluoropyridin-2-yl)methoxy]-2′-[3-(2-hydroxypropan-2-yl)-2-oxopyridin-1-yl]-6-(methoxymethyl)-5′-methyl-[1,4′-bipyridin]-2-one] | > 1 | > 316 |  |
| Cc1ccc(-n2cccc(C(C)(C)O)c2=O)cc1-n1c(C)cc(OCc2ncc(F)cc2F)c(Cl)c1=O (single isomer, unassigned) [Example 2B, rel-3-chloro-4-[(3,5-difluoropyridin-2-yl)methoxy]-1-{5-[3-(2-hydroxypropan-2-yl)-2-oxopyridin-1-yl]-2-methylphenyl}-6-methylpyridin-2-one] | > 1 | > 316 |  |
| Cc1cnc(-n2ccnc(C(C)(C)O)c2=O)cc1-n1c(C)cc(OCc2ncc(F)cc2F)c(Cl)c1=O (single isomer, unassigned) [Example 5A, rel-3-chloro-4-[(3,5-difluoropyridin-2-yl)methoxy]-2′-[3-(2-hydroxypropan-2-yl)-2-oxopyrazin-1-yl]-5′,6-dimethyl-[1,4′-bipyridin]-2-one] | 0.00251 | 2.51 |  |
